Read-outs that look alike come from different tables or passages of the source.
How the values were obtained:
Type in all cases: cell-based
MYB mRNA = assay: Splicing RT-qPCR assay, MYB canonical (CJ) and alternative (AJ) junction mRNA; conditions: Homo sapiens; for EC50: AC50 = 50% response in AJ mRNA increase
Method: (§1) Compounds described herein were used to modulate RNA transcript abundance in cells. The expression of a target mRNA was measured by detecting the formation of an exon-exon junction in the canonical transcript (CJ). A compound mediated exon-inclusion event was detected by observing an increase in formation of a new junction with an alternative exon (AJ). Real-time qPCR assays were used to detect these splicing switches and interrogate the potency of various compounds towards different target genes. A high-throughput real time quantitative PCR (RT-qPCR) assay was developed to measure these two isoforms of the mRNA (CJ and AJ) for exemplary genes, such as HTT, SMN2, and MYB, together with a control housekeeping gene, GAPDH or GUSB or PPIA, used for normalization. Briefly, the A673 or K562 cell line was treated with various compounds described herein (e.g., compounds of Formula (I)). After treatment, the levels of the HTT, MYB, or SMN2 mRNA targets were determined from each sample of cell lysate by cDNA synthesis followed by qPCR.
(§2) The A673 cell line was cultured in DMEM with 10% FBS. Cells were diluted with full growth media and plated in a 96-well plate (15,000 cells in 100 ul media per well). The plate was incubated at 37° C. with 5% CO2 for 24 hours to allow cells to adhere. An 11-point 3-fold serial dilution of the compounds was made in DMSO then diluted in media in an intermediate plate. Compounds were transferred from the intermediate plate to the cell plate with the top dose at a final concentration of 10 uM in the well. Final DMSO concentration was kept at or below 0.25%. The cell plate was returned to the incubator at 37° C. with 5% CO2 for an additional 24 hours.
(§3) The K562 cell line was cultured in IMDM with 10% FBS. For K562, cells were diluted with full growth media and plated in either a 96-well plate (50,000 cells in 50 uL media per well) or a 384-well plate (8,000-40,000 cells in 45 uL media per well). An 11-point 3-fold serial dilution of the compounds were made in DMSO then diluted in media in an intermediate plate. Compound was transferred from the intermediate plate to the cell plate with the top dose at a final concentration of 10 uM in the well. Final DMSO concentration was kept at or below 0.25%. Final volume was 100 uL for 96-well plate and 50 uL for 384-well plate. The cell plate was then placed in an incubator at 37° C. with 5% CO2 for 24 hours.
(§4) The cells were then gently washed with 50 uL-100 uL cold PBS before proceeding to addition of lysis buffer. 30 uL-50 uL of room temperature lysis buffer with DNAse I (and optionally RNAsin) was added to each well. Cells were shaken/mixed thoroughly at room temperature for 5-10 minutes for lysis to take place and then 3 uL-5 uL of room temperature stop solution was added and wells were shaken/mixed again. After 2-5 minutes, the cell lysate plate was transferred to ice for RT-qPCR reaction setup. The lysates could also be frozen at-80° C. for later use.
(§5) In some cases, a direct lysis buffer was used. An appropriate volume of 3× lysis buffer (10 mM Tris, 150 mM NaCl, 1.5%-2.5% Igepal and 0.1-1 U/uL RNAsin, pH 7.4) was directly added to either K562 or A673 cells in media and mixed by pipetting 3 times. The plates were then incubated at room temperature with shaking/rocking for 20-50 minutes to allow for lysis to take place. After this time, the cell lysate plate was transferred to ice to set up for the RT-qPCR reactions. The lysates could also be frozen at −80° C. for later use.
(§6) To set up 10 uL RT-qPCR reactions, cell lysates were transferred to 384-well qPCR plates containing the master mix according to the table below. The plates were sealed, gently vortexed, and spun down before the run. The volumes were adjusted accordingly in some instances where the reaction was carried in 20 μL. The table below summarizes the components of the RT-qPCR reactions:
(§7) The RT-qPCR reaction was performed using a QuantStudio (ThermoFisher) under the following fast cycling conditions. […]

SMN2 mRNA = assay: Splicing RT-qPCR gene panel, SMN2 canonical junction (CJ) mRNA; conditions: Homo sapiens; Table 8; larger gene panel, decrease in CJ mRNA levels
Method: as §1, §2, §3, §4, §5, §6, §7

HTT mRNA = assay: Splicing RT-qPCR assay, HTT canonical (CJ) and alternative (AJ) junction mRNA; conditions: Homo sapiens; for EC50: AC50 = 50% response in AJ mRNA increase
Method: as §1, §2, §3, §4, §5, §6, §7

Target C mRNA = assay: Splicing RT-qPCR gene panel, Target C canonical junction (CJ) mRNA; conditions: Homo sapiens; Table 8; larger gene panel, decrease in CJ mRNA levels
Method: as §1, §2, §3, §4, §5, §6, §7

[1] = Table 7, RT-qPCR, A673 or K562 cells, 24 hours treatment
[2] = Table 7, IC50 = 50% response in CJ mRNA decrease, RT-qPCR, A673 or K562 cells, 24 hours treatment, read-out: MYB CJ
[3] = Table 8, larger gene panel, decrease in CJ mRNA levels, read-out: MYB CJ IC50
[4] = Table 7, IC50 = 50% response in CJ mRNA decrease, RT-qPCR, A673 or K562 cells, 24 hours treatment, read-out: HTT CJ
[5] = Table 8, larger gene panel, decrease in CJ mRNA levels, read-out: HTT CJ IC50

EC50 (MYB mRNA; [1]) [µM] | IC50 (MYB mRNA; [2]) [µM] | IC50 (MYB mRNA; [3]) [µM] | IC50 (SMN2 mRNA) [µM] | EC50 (HTT mRNA; [1]) [µM] | IC50 (HTT mRNA; [4]) [µM] | IC50 (HTT mRNA; [5]) [µM] | IC50 (Target C mRNA) [µM] | Compound
0.1 to 1 | 0.1 to 1 | 0.1 to 1 | < 0.1 | 0.1 to 1 | 0.1 to 1 | 0.1 to 1 | 0.1 to 1 | CC1CN(c2cc3sc(-c4cc(F)c5nn(C)cc5c4)nc3s2)CCN1 (stereo not drawn) [Compound 135, 7-fluoro-2-methyl-5-[5-(3-methylpiperazin-1-yl)thieno[2,3-d][1,3]thiazol-2-yl]indazole]
0.1 to 1 | 1 to 10 | 0.1 to 1 | 0.1 to 1 | 1 to 10 | 1 to 10 | 1 to 10 | 1 to 10 | Cn1cc2cc(-c3nc4sc(N5CCC(NC(C)(C)C)C5)cc4s3)cc(F)c2n1 (stereo not drawn) [Compound 143, N-tert-butyl-1-[2-(7-fluoro-2-methylindazol-5-yl)thieno[2,3-d][1,3]thiazol-5-yl]pyrrolidin-3-amine]
1 to 10 | 1 to 10 | 1 to 10 | 0.1 to 1 | 0.1 to 1 | 0.1 to 1 | 0.1 to 1 | 1 to 10 | Cc1cc(-c2cc3cn([C@H]4CCNC[C@H]4F)nc3s2)cc2cn(C)nc12 (single isomer, unassigned) [Compound 245]
0.1 to 1 | 0.1 to 1 | 0.1 to 1 | 0.1 to 1 | 0.1 to 1 | 0.1 to 1 | 0.1 to 1 | 0.1 to 1 | Cc1cc(N2Cc3sc(C4CCNCC4)cc3C2=O)cc2cn(C)nc12 [Compound 1122]
1 to 10 | 0.1 to 1 | 0.1 to 1 | < 0.1 | 0.1 to 1 | 0.1 to 1 | 0.1 to 1 | 0.1 to 1 | Cc1cc(-c2cc3cn([C@@H]4CCNC[C@@H]4F)nc3s2)cc2cn(C)nc12 (single isomer, unassigned) [Compound 244]
0.1 to 1 | 0.1 to 1 | 0.1 to 1 | < 0.1 | 0.1 to 1 | 0.1 to 1 | 0.1 to 1 | 1 to 10 | CN1CCN(c2cc3sc(-c4cc(F)c5nn(C)cc5c4)nc3s2)CC1 [Compound 141, 7-fluoro-2-methyl-5-[5-(4-methylpiperazin-1-yl)thieno[2,3-d][1,3]thiazol-2-yl]indazole]
1 to 10 | 1 to 10 | 1 to 10 | < 0.1 | 1 to 10 | 1 to 10 | 1 to 10 | > 10 | Cn1cc2cc(-c3nc4sc(N5CCC6(CCN6)C5)cc4s3)cc(F)c2n1 (stereo not drawn) [Compound 233, 5-(5-{1,6-diazaspiro[3.4]octan-6-yl}thieno[2,3-d][1,3]thiazol-2-yl)-7-fluoro-2-methylindazole]
0.1 to 1 | 1 to 10 | 0.1 to 1 | 0.1 to 1 | > 10 | > 10 | > 10 | > 10 | Cn1cc2cc(-c3nc4sc(N5CCNC6(CC6)C5)cc4s3)cc(F)c2n1 [Compound 136, 5-(5-[4,7-diazaspiro[2.5]octan-7-yl]thieno[2,3-d][1,3]thiazol-2-yl)-7-fluoro-2-methylindazole]
< 0.1 | < 0.1 | < 0.1 | < 0.1 | < 0.1 | < 0.1 | < 0.1 | < 0.1 | Cn1cc2cc(-c3nc4sc(C5CCNCC5)cc4s3)cc(F)c2n1 [Compound 106, 7-fluoro-2-methyl-5-[5-(piperidin-4-yl)thieno[2,3-d][1,3]thiazol-2-yl]indazole]
0.1 to 1 | 0.1 to 1 | 0.1 to 1 | 0.1 to 1 | 0.1 to 1 | 0.1 to 1 | 0.1 to 1 | 0.1 to 1 | Cc1cn2nc(-c3nc4sc(C5=CCOCC5)cc4s3)cc(C)c2n1 [Compound 195, 6-[5-(3,6-dihydro-2H-pyran-4-yl)thieno[2,3-d][1,3]thiazol-2-yl]-2,8-dimethylimidazo[1,2-b]pyridazine]
> 10 | > 10 | > 10 | 1 to 10 | > 10 | > 10 | > 10 | > 10 | CN1CCCC2(CCN2c2cc3sc(-c4cc(F)c5nn(C)cc5c4)nc3s2)C1 (stereo not drawn) [Compound 203, 1-[2-(7-fluoro-2-methylindazol-5-yl)thieno[2,3-d][1,3]thiazol-5-yl]-6-methyl-1,6-diazaspiro[3.5]nonane]
< 0.1 | < 0.1 | < 0.1 | < 0.1 | < 0.1 | < 0.1 | < 0.1 | < 0.1 | COc1c(-c2nc3sc(C4CCNCC4)cc3s2)cc2cn(C)nc2c1F [Compound 242, 7-fluoro-6-methoxy-2-methyl-5-[5-(piperidin-4-yl)thieno[2,3-d][1,3]thiazol-2-yl]indazole]
< 0.1 | 0.1 to 1 | < 0.1 | < 0.1 | 0.1 to 1 | 0.1 to 1 | 0.1 to 1 | 1 to 10 | Cn1cc2cc(-c3nc4sc(N5CCNCC5)c(Cl)c4s3)cc(F)c2n1 [Compound 147]
0.1 to 1 | 0.1 to 1 | 0.1 to 1 | < 0.1 | < 0.1 | 0.1 to 1 | < 0.1 | 0.1 to 1 | Cn1cc2cc(-c3cc4sc(C5CCNCC5)nc4s3)cc(F)c2n1 [Compound 124, 7-fluoro-2-methyl-5-[2-(piperidin-4-yl)thieno[2,3-d][1,3]thiazol-5-yl]indazole]
1 to 10 | 1 to 10 | 1 to 10 | 1 to 10 | 1 to 10 | 1 to 10 | 1 to 10 | 1 to 10 | CN1CCC2(CC1)CCN2c1cc2sc(-c3cc(F)c4nn(C)cc4c3)nc2s1 [Compound 204, 1-[2-(7-fluoro-2-methylindazol-5-yl)thieno[2,3-d][1,3]thiazol-5-yl]-7-methyl-1,7-diazaspiro [3.5]nonane]
 |  | 0.1 to 1 | < 0.1 |  |  | 0.1 to 1 | 0.1 to 1 | CN1CC2(C1)CN(c1cc3sc(-c4cc(F)c5nn(C)cc5c4)nc3s1)C2 [Compound 146, 7-fluoro-2-methyl-5-(5-[6-methyl-2,6-diazaspiro[3.3]heptan-2-yl]thieno[2,3-d][1,3]thiazol-2-yl)indazole]

Compound | EC50 (MYB mRNA; [1]) [µM] | IC50 (MYB mRNA; [2]) [µM] | IC50 (MYB mRNA; [3]) [µM] | IC50 (SMN2 mRNA) [µM] | EC50 (HTT mRNA; [1]) [µM] | IC50 (HTT mRNA; [4]) [µM] | IC50 (HTT mRNA; [5]) [µM] | IC50 (Target C mRNA) [µM]
CN(c1cc2sc(-c3ccc(-c4cn[nH]c4)cc3O)nc2s1)[C@@H]1C[C@H]2CC[C@@H](C1)N2 [Compound 191, 2-{5-[(1R,3R,5S)-8-azabicyclo[3.2.1]octan-3-yl(methyl)amino]thieno[2,3-d][1,3]-thiazol-2-yl}-5-(1H-pyrazol-4-yl)phenol] | > 10 | > 10 | > 10 | > 10 | > 10 | > 10 | > 10 | > 10

From patent US20250109140A1, “5-[5-(PIPERIDIN-4-YL)THIENO[3,2-C]PYRAZOL-2-YL]INDAZOLE DERIVATIVES AND RELATED COMPOUNDS AS MODULATORS FOR SPLICING NUCLEIC ACIDS AND FOR THE TREATMENT OF PROLIFERATIVE DISEASES” (REMIX THERAPUTICS INC., priority 2022, published 2025)
